Assay results: patent US20240279217A1, “Heterocyclic compounds for the treatment of tuberculosis” (TECNIMEDE - SOCIEDADE TÉCNICO-MEDICINAL, SA, priority 2021, published 2024)
Converted amounts (≈) assume the structure as drawn. Counter-ions that a name gives are not always drawn. Like-named read-outs stand apart in the source and are kept apart here.

Experiments:
HepG2 cell line = experiment: In vitro cytotoxicity assay (MTS tetrazolium reduction); type: cell-based; details: HepG2, 48 h
Description: In an embodiment, in vitro cytotoxicity assay was carried out. In vitro cytotoxicity assay was performed in HepG2 cell line using a tetrazolium reduction assay for cell viability evaluation (MTS reduction as described by Cory A. et al (Cancer Commun. 1991, 3 (7), 207-212)). The assay was performed in 96-well plates for 48 h at 37° C. and 5% CO2 in incubation medium (low glucose DMEM with Glutamax, 10% FBS, 1% Pen/Strep and DMSO). Cells were exposed to 8 different compound concentrations in successive dilutions (usually, base 2), plus a positive control (a compound in a concentration known to decrease cell viability above 50%) and a negative control (incubation medium). Six replicate wells were assayed for each condition. Compound stock solutions were prepared in DMSO at 20 mM, whenever possible, filter sterilized, aliquoted and stored at −20° C. The maximum compound concentrations tested depend on its solubility in incubation medium, and on the maximum DMSO percentage allowable without loss of cell viability. At the end of the incubation period, tetrazolium reagent was added (CellTiter 96′ AQueous Solution from Promega); cells were incubated for another 3 hours in order to promote tetrazolium reduction to formazan by viable cells. The amount of soluble formazan produced was evaluated by 490 nm absorbance reading in a spectrophotometer plate reader. […] Whenever possible, IC50 was calculated as the concentration of compound that reduces cell viability by 50%.

[1] = system: H37Rv M. tuberculosis (strain ATCC 25618); experiment: Mycobacterium tuberculosis susceptibility assay REMA (resazurin microtiter assay); type: cell-based; details: for MIC: Mycobacterium tuberculosis, 144 h, read-out: REMA MIC; for REMA MIC: Table 2
[2] = MTB growth REMA, H37Rv, Middlebrook 7H9, 6 days at 37° C.
[3] = Homo sapiens, Table 1, cytotoxicity, MTS, read-out: IC50
[4] = Table 2, cytotoxicity, MTS, read-out: IC50
[5] = Table 1, MTB growth REMA, H37Rv, Middlebrook 7H9, 6 days at 37° C.

Row | SMILES | IC50 (HepG2 cell line; Homo sapiens) [µM] | IC50 (HepG2 cell line; Table 2, cytotoxicity, MTS) [µM] | MIC [1] [µM] | REMA MIC [1, 2] | IC50 (HepG2 cell line; [3]) [µM] | IC50 (HepG2 cell line; [4]) [µM] | MIC [1, 5] [µM]
1 | COc1cccc2ccc(N3CCC(c4nc(-c5ccc(N6CCCCC6)nc5)no4)CC3)nc12 [Compound 33, 5-(1-(8-methoxyquinolin-2-yl)piperidin-4-yl)-3-(6-(piperidin-1-yl)pyridin-3-yl)-1,2,4-oxadiazole] | > 100 | > 100 | < 7.8 | ++++ (<7.8) |  |  | 
2 | COc1ccc2nc(N3CCC(c4nc(-c5cccnc5)no4)CC3)ccc2c1 [Compound 21, 5-(1-(6-methoxyquinolin-2-yl)piperidin-4-yl)-3-(pyridin-3-yl)-1,2,4-oxadiazole] |  |  |  | ++++ (<7.8) | > 100 | > 100 | < 7.8
3 | c1cncc(-c2noc(C3CCN(c4ccc5cc(-c6ccncc6)ccc5n4)CC3)n2)c1 [Compound 27, 3-(pyridin-3-yl)-5-(1-(6-(pyridin-4-yl)quinolin-2-yl)piperidin-4-yl)-1,2,4-oxadiazole] |  |  |  | ++++ (<7.8) | > 100 | > 100 | < 7.8
4 | COc1cc(OC)cc(-c2noc(C3CCN(c4ccc5cccc(OC)c5n4)CC3)n2)c1 [Compound 6, 3-(3,5-dimethoxyphenyl)-5-(1-(8-methoxyquinolin-2-yl)piperidin-4-yl)-1,2,4-oxadiazole] | > 100 | > 100 | 7.8 to 15.6 (≈ 3.48 to 6.97 µg/mL) | +++ (7.8-15.6) |  |  | 
5 | COc1cccc2ccc(N3CCC(c4nc(-c5cccnc5)no4)CC3)nc12 [Compound 10, 5-(1-(8-methoxyquinolin-2-yl)piperidin-4-yl)-3-(pyridin-3-yl)-1,2,4-oxadiazole hydrochloride] | 50 to 100 |  | 15.6 to 31.5 |  |  |  | 
6 | Clc1cccc2ccc(N3CCC(c4nc(-c5cccnc5)no4)CC3)nc12 [Compound 18, 5-(1-(8-chloroquinolin-2-yl)piperidin-4-yl)-3-(pyridin-3-yl)-1,2,4-oxadiazole hydrochloride] | 50 to 100 |  | 15.6 to 31.5 |  |  |  | 
7 | COc1cccc2ccc(N3CCC(c4nc(-c5ccc(C(F)(F)F)nc5)no4)CC3)nc12 [Compound 11, 5-(1-(8-methoxyquinolin-2-yl)piperidin-4-yl)-3-(6-(trifluoromethyl)pyridin-3-yl)-1,2,4-oxadiazole] | 20 to 50 |  | < 7.8 |  |  |  | 
8 | COc1cccc2ccc(N3CCC(c4nc(-c5ccc(Cl)nc5)no4)CC3)nc12 [Compound 31, 3-(6-chloropyridin-3-yl)-5-(1-(8-methoxyquinolin-2-yl)piperidin-4-yl)-1,2,4-oxadiazole hydrochloride] | 20 to 50 |  | 15.6 to 31.5 |  |  |  | 
9 | COc1cccc2ccc(N3CCC(c4nc(-c5cccc(C(F)(F)F)c5)no4)CC3)nc12 [Compound 7, 5-(1-(8-methoxyquinolin-2-yl)piperidin-4-yl)-3-(3-(trifluoromethyl)phenyl)-1,2,4-oxadiazole] | > 100 |  | 15.6 to 31.5 (≈ 7.09 to 14.3 µg/mL) |  |  |  | 
10 | COc1cccc2ccc(N3CCC(c4nc(-c5ccc(NCCO)nc5)no4)CC3)nc12 [Compound 35, 2-((5-(5-(1-(8-methoxyquinolin-2-yl)piperidin-4-yl)-1,2,4-oxadiazol-3-yl)pyridin-2-yl)amino)ethan-1-ol hydrochloride] | > 100 |  | 15.6 to 31.5 |  |  |  | 
11 | COc1cccc2ccc(N3CCC(c4nc(-c5ccc(N6CCCC6)nc5)no4)CC3)nc12 [Compound 50, 5-(1-(8-methoxyquinolin-2-yl)piperidin-4-yl)-3-(6-(pyrrolidin-1-yl)pyridin-3-yl)-1,2,4-oxadiazole hydrochloride] | > 100 | > 100 | 7.8 to 15.6 | +++ (7.8-15.6) |  |  | 
12 | COc1cccc2ccc(N3CCC(c4nc(-c5ccc(N6CCNCC6)nc5)no4)CC3)nc12 [Compound 34, 5-(1-(8-methoxyquinolin-2-yl)piperidin-4-yl)-3-(6-(piperazin-1-yl)pyridin-3-yl)-1,2,4-oxadiazole] |  |  |  |  | < 20 |  | 15.6 to 31.5 (≈ 7.36 to 14.9 µg/mL)
13 | COc1cccc2ccc(N3CCC(c4nc(-c5ccc(C(F)(F)F)cc5)no4)CC3)nc12 [Compound 5, 5-(1-(8-methoxyquinolin-2-yl)piperidin-4-yl)-3-(4-(trifluoromethyl)phenyl)-1,2,4-oxadiazole hydrochloride] | 50 to 100 |  | 7.8 to 15.6 |  |  |  | 
14 | COc1cccc2ccc(N3CCC(c4nc(-c5ccc(O)cc5)no4)CC3)nc12 [Compound 24, 4-(5-(1-(8-methoxyquinolin-2-yl)piperidin-4-yl)-1,2,4-oxadiazol-3-yl)phenol] |  |  |  | +++ (7.8-15.6) | > 100 | > 100 | 7.8 to 15.6 (≈ 3.14 to 6.28 µg/mL)
